From PMC4536990, “Efficacy of the antimicrobial peptide TP4 against Helicobacter pylori infection: in vitro membrane perturbation via micellization and in vivo suppression of host immune responses in a mouse model” (Oncotarget, 2015)
Where a SMILES comes first, the peptide text is derived from it.

Assays:
H. pylori 43629 = assay type: cell-based, Helicobacter pylori; details: 43629, 24 h
H. pylori CI-HC-028 [1] = assay type: cell-based, Helicobacter pylori; details: CI-HC-028, 24 h
Method: (§1) H. pylori strains, American type cell cultures (ATCC) 43504, 51653, and 700392, and a clinical isolate CI-HC-028 (provided by Dr. Ming-Shiung Wu, Department of Internal Medicine, Gastrointestinal Hepatobilary Division, National Taiwan University Hospital, Taiwan) were used to determine the antimicrobial efficacy of TP4. Strains were cryopreserved at −80°C in brain heart infusion broth supplemented with 20% FBS. Bacteria were cultured under microaerobic conditions, as previously described. Briefly, bacteria were spread on brain heart infusion (BHI) agar plates supplemented with 10% (v/v) sheep blood, and plates were incubated at 37°C for 24 hr under a microaerobic atmosphere (Anaeropack-Anaero, Mitsubishi, Japan).
(§2) Frozen cultures were streaked onto BHI agar with 10% sheep blood, and incubated for 24 hr under microaerophilic conditions. H. pylori cells undergoing exponential growth were suspended in sterile phosphate-buffered saline (PBS), and adjusted to 0.05 OD using BHI broth; the resulting inoculum was dispensed onto a microtitre plate. Peptide TP4 was prepared at various concentrations (0.04 to 50 μg mL^−1) using PBS. Antibiotic resistant clinical isolate CI-HC-028 and three reference strains were used for susceptibility testing. All plates were incubated under microaerophilic conditions at 37°C overnight. The MIC was defined as the lowest concentration of the drug at which there was no visible growth. For quality control and comparative analyses, we examined the susceptibility of all four H. pylori strains to the antibiotics amoxicillin, clarithromycin, and metronidazole (Sigma Chemical Co., St. Louis, MO).

H. pylori 700392 = assay type: cell-based, Helicobacter pylori; details: 700392, 24 h
Method: as §1, §2

H. pylori 43504 = assay type: cell-based, Helicobacter pylori; details: 43504, 24 h
Method: as §1, §2

[2] = tested on: New Zealand white rabbits; experiment: Eye irritation test in rabbits (OECD 405); assay type: in vivo; details: for Abnormality iris grade / Chemosis grade / Conjunctivae Redness grade / Corneal opacity grade: OECD 405 grading
Method: (§3) Figure 11 TP4 toxicity safety evaluations in New Zealand albino rabbits and C3H/HeN mice (A) Eye irritation test: Ocular appearances of controls, and rabbits treated with TP4 or SDS for 7 days. […] (B) Dermal toxicity: appearances of the skin of mice treated with TP4 at 48 hr post-exposure.
(§4) Oral toxicity: Acute oral toxicity was assessed in C3H/HeN mice with 6 animals per group, by single oral administration of TP4 (125 mg/kg). After dose administration, the animals were kept under observation for a minimum of 48 hr. The mortality rate and clinical signs were recorded. Sub-acute oral toxicity was assessed by administering 600 μg dose/day for 14 days. During dose administration, the animals were observed every day for any signs of toxicity. After the treatment period, the animals were kept under observation for 14 days. The morbidity, mortality, and other clinical signs were recorded and assessed. Dermal Toxicity was assessed by topical application of TP4 at 10 times the effective dose to skin at the dorsal side of mice. After administration, the animals were kept under observation for a minimum of 48 h. Clinical signs were noted if the animals were in the morbid stage or presented with any abnormalities. Eye irritation test in New Zealand white rabbits: Healthy young adult rabbits were used in the experiment. Eyes were treated with TP4, PBS (vehicle control), or 0.1% SDS (positive control). A repeated dose of 1 mg/kg was administered every day for 7 days. During the treatment period, the eyes were examined on days 1, 3, 5, and 7, and allowed to recover until day 14. Clinical signs were recorded during the test period, and grades were assigned for ocular reactions observed during each examination. All procedures, care, and handling of rabbits were approved by the laboratory animal ethics committee of National Taiwan Ocean University.

C3H/HeN mice = experiment: Dermal toxicity; assay type: in vivo; details: 48 hr post-exposure, after residue removal; 125 mg/kg TP4 or 20% SDS; n=12 per group
Method: as §3, §4

H. pylori = experiment: Induction of drug resistance by sub-inhibitory passaging (in vitro / in vivo passage); assay type: cell-based, Helicobacter pylori; details: sub-inhibitory doses, 10 serial passages
Method: (§5) Animals were sacrificed at each passage, and the MIC of TP4, amoxicillin, metronidazole, and clarithromycin were recorded for 10 serial passages. Passage points in the curves are means ± SEM. (MICs: standard MIC value; MICp: passage-induced MIC). (B) In vitro dose-OD fall kinetics were examined for TP4 alone and in combination with amoxicillin, metronidazole, or clarithromycin. […] The data shown are means ± SEM of two independent experiments
The drug resistance of bacteria to TP4 and clinical antibiotics was determined by in vitro culturing of H. pylori in sub-inhibitory concentrations of TP4 and antibiotics, followed by repeated in vivo passaging. H. pylori was administered to C3H/HeN mice and allowed to colonize the gut; subsequently pure colonies of H. pylori were isolated on EYE selective media. This step was repeated for 10 passages. During each passage, the MICs of TP4 and the conventional antibiotics were determined. All procedures, care, and handling of mice were approved by the laboratory animal ethics committee of National Taiwan Ocean University.

[3] = tested on: metronidazole- and clarithromycin-resistant H. pylori strains; experiment: Synergy of TP4 with antibiotics, in vitro dose-OD fall kinetics; assay type: cell-based, Helicobacter pylori; details: TP4 plus antibiotic
Method: as §5
Combination therapy often enhances antibiotic efficacy and mitigates the frequency at which drug resistance emerges. To determine the suitability of TP4 for combination therapy, we examined in vitro dose-OD fall kinetics of TP4 in combination with AMOX, CLRN, or METZ antibiotics; these three antibiotics are traditionally used as the first line of defense against H. pylori.

H. pylori CI-HC-028 [4] = experiment: Time-dependent killing of multidrug resistant clinical isolate; assay type: cell-based, Helicobacter pylori; details: CI-HC-028, at MIC
Method: Control peptide and H. pylori alone were used as controls. The cultures were monitored for 24 h, and aliquots were taken at 1, 3, 6, 12, and 24 h for bacterial enumeration. The data are means ± SEM. […] Approximately, 1 × 10^5 cells were incubated for 1 h, and then incubated with the MIC of TP4, amoxicillin, metronidazole, or clarithromycin (AMOX, METZ, and CLRN, respectively). The cultures were monitored for 24 h, and aliquots taken at 1, 3, 6, 12, and 24 h to determine surviving c.f.u. The data are means ± SEM
Overnight cultures of H. pylori were scraped and adjusted to OD 0.05, and 1 ml/tube inocula were prepared with BHI broth. Solutions of TP4 or clinical antibiotics were prepared with concentrations corresponding to their respective MIC, and PBS was used as a control. The tubes were incubated without shaking at 37°C under microaerophilic conditions, and sample aliquots were taken at 0, 1, 3, 6, 12, and 24 hr. The samples were serially diluted, and appropriate dilutions were plated in triplicate onto blood agar plates for bacterial counts. The results were expressed as mean log (c.f.u. mL^−1) with standard error.

## CC(C)C[C@H](NC(=O)[C@@H](NC(=O)[C@H](CO)NC(=O)[C@H](CC(=O)O)NC(=O)[C@H](Cc1c[nH]c2ccccc12)NC(=O)[C@H](CC(=O)O)NC(=O)[C@@H](N)Cc1ccccc1)C(C)C)C(=O)N[C@@H](CCCCN)C(=O)NCC(=O)N[C@H](C(=O)N[C@@H](CCC(=O)O)C(=O)NCC(=O)N[C@@H](Cc1ccccc1)C(=O)N[C@H](C(=O)N[C@@H](CCCNC(=N)N)C(=O)NCC(=O)N[C@@H](Cc1ccc(O)cc1)C(=O)N[C@@H](Cc1ccccc1)C(N)=O)C(C)C)C(C)C [TP1] (H-FDWDSVLKGVEGFVRGYF-NH2)
H. pylori 43629
  MIC: > 12 µg/mL
H. pylori CI-HC-028 [1]
  MIC: > 12 µg/mL
H. pylori 700392
  MIC: > 12 µg/mL
H. pylori 43504
  MIC: > 12 µg/mL

## CCCCCCCCCCCCOS(=O)(=O)[O-].[Na+] [SDS, reference compound]
[2]; Day 1
  Abnormality iris grade: 0
  Chemosis grade: 1.5
  Conjunctivae Redness grade: 1
[2]; Day 1, rabbit eye, daily for 7 days (TP4 1 mg/kg; SDS 0.1%)
  Corneal opacity grade: 1
[2]; Day 3
  Abnormality iris grade: 0
  Chemosis grade: 1.5
  Conjunctivae Redness grade: 1
  Corneal opacity grade: 1
[2]; Day 5
  Abnormality iris grade: 0
  Chemosis grade: 2
  Conjunctivae Redness grade: 1
  Corneal opacity grade: 1
[2]; Day 7
  Abnormality iris grade: 0
  Chemosis grade: 2
  Conjunctivae Redness grade: 1
  Corneal opacity grade: 1
[2]; Recovery, Day 14
  Abnormality iris grade: 0
  Chemosis grade: 1.5
  Conjunctivae Redness grade: 0.5
  Corneal opacity grade: 0.5
[2]; rabbits treated for 7 days, observed daily
  ocular appearance: severe lacrimation, swelling of the eyelids, and elevated blood vessels in conjunctivae
C3H/HeN mice
  skin appearance, lesions: No obvious lesions

## CC[C@H](C)[C@H](NC(=O)[C@H](CC(C)C)NC(=O)[C@H](CO)NC(=O)[C@H](Cc1c[nH]cn1)NC(=O)[C@@H](NC(=O)[C@H](Cc1c[nH]cn1)NC(=O)[C@H](CCCCN)NC(=O)CNC(=O)[C@@H](NC(=O)[C@H](CO)NC(=O)[C@H](Cc1ccccc1)NC(=O)[C@H](CC(C)C)NC(=O)CNC(=O)CNC(=O)[C@@H](NC(=O)[C@@H](NC(=O)[C@H](Cc1c[nH]cn1)NC(=O)[C@H](Cc1c[nH]cn1)NC(=O)[C@@H](NC(=O)[C@@H](N)Cc1ccccc1)[C@@H](C)CC)[C@@H](C)CC)[C@@H](C)CC)C(C)C)[C@@H](C)CC)C(=O)N[C@@H](Cc1c[nH]cn1)C(=O)NCC(=O)N[C@@H](Cc1c[nH]cn1)C(N)=O [TP3] (H-FIHHIIGGLFSVGKHIHSLIHGH-NH2)
H. pylori 43629
  MIC: 8 to 12 µg/mL
H. pylori CI-HC-028 [1]
  MIC: 8 to 12 µg/mL
H. pylori 700392
  MIC: 8 to 12 µg/mL
H. pylori 43504
  MIC: 8 to 12 µg/mL

## CC[C@H](C)[C@H](NC(=O)[C@H](CC(C)C)NC(=O)[C@H](CCC(=O)O)NC(=O)[C@H](CCC(N)=O)NC(=O)[C@H](CC(C)C)NC(=O)[C@@H](NC(=O)[C@H](CCCCN)NC(=O)[C@H](CCC(N)=O)NC(=O)[C@@H](NC(=O)[C@@H](NC(=O)[C@H](CCC(=O)O)NC(=O)CNC(=O)[C@H](CO)NC(=O)[C@@H](NC(=O)[C@H](CCC(N)=O)NC(=O)[C@H](CCCCN)NC(=O)CNC(=O)[C@H](CCC(N)=O)NC(=O)[C@H](CC(C)C)NC(=O)[C@@H](N)CCC(N)=O)C(C)C)C(C)C)C(C)C)C(C)C)C(=O)N[C@@H](CCC(N)=O)C(=O)N[C@@H](CO)C(=O)N[C@H](C(=O)N[C@@H](C)C(=O)N[C@@H](CCCCN)C(=O)N1CCC[C@H]1C(N)=O)C(C)C [TP5] (H-QLQGKQVSGEVVQKVLQELIQSVAKP-NH2)
H. pylori 43629
  MIC: >12 µg/mL
H. pylori CI-HC-028 [1]
  MIC: >12 µg/mL
H. pylori 700392
  MIC: >12 µg/mL
H. pylori 43504
  MIC: >12 µg/mL

## Cc1ncc([N+](=O)[O-])n1CCO [metronidazole]
H. pylori
  drug resistance index MICp/MICs: gradually increased from passage 3 to the last passage
[3]
  reduction of the MIC of the antibiotic in combination with TP4: one-half
H. pylori CI-HC-028 [4]; 24 h
  course of cell count in time kill: initial decrease in cell count, but gradually lost activity

## CC[C@H]1OC(=O)[C@H](C)[C@@H](O[C@H]2C[C@@](C)(OC)[C@@H](O)[C@H](C)O2)[C@H](C)[C@@H](O[C@@H]2O[C@H](C)C[C@H](N(C)C)[C@H]2O)[C@](C)(OC)C[C@@H](C)C(=O)[C@H](C)[C@@H](O)[C@]1(C)O [clarithromycin]
H. pylori
  drug resistance index MICp/MICs: gradually increased from passage 3 to the last passage
[3]
  reduction of the MIC of the antibiotic in combination with TP4: one-half
H. pylori CI-HC-028 [4]
  time taken to 90% reduction of c.f.u.: > 24 h
